Results: US9139596B2, “Cyclic prodrugs of duocarmycin analogs” (The Scripps Research Institute, priority 2012, dated 2015)
Read-outs that look alike come from different tables or passages of the source.

Key:
[1] = tested on: L1210 murine leukemia cell line; conditions: L1210, natural enantiomer, literature ref 9; cited from earlier work
[2] = tested on: L1210 murine leukemia cell line; assay: In vitro cytotoxic activity (cell growth inhibition), L1210; format: cell-based
Procedure: In Vitro Cytotoxic Activity. Both (+)- and ent-(−)-6 and their N-Boc precursors 16 were tested for cell growth inhibition in a cytotoxic assay with the L1210 murine leukemia cell line.

Solvolysis of 21 = format: physicochemical; conditions: 25° C., UV 255 nm; for half-life: CH3OH / aqueous citrate-phosphate buffer, read-out: solvolysis t1/2 (converted); for solvolysis rate constant k: CH3OH
Procedure: Compound 21 was dissolved in CH3OH (1.5 mL). […] After mixing, the solvolysis solutions were stoppered and kept at 25° C. in the dark. The UV spectrum of the solutions was measured 3-4 times in the first two days and once a day for 2-4 weeks. The UV monitoring was continued until no further change was detectable. The long-wavelength absorption at 380 nm and short-wavelength absorption at 255 nm were monitored. The solvolysis rate constant and half-life were calculated from the data recorded at the short wavelength (255 nm) from the least square treatment of the slopes of plots of time versus ln [(AFinal−Ainitial)/(Afinal−A)].

[3] = tested on: L1210 murine leukemia cells implanted ip; conditions: previously established; cited from earlier work
[4] = tested on: L1210 murine leukemia cells implanted ip; assay: In vivo antitumor activity (L1210, ip); conditions: for Surviving Mice: live animals after 250 days
Procedure: Therefore, the in vivo antitumor activity of (+)-6 was assessed alongside seco-CBI-indole2 (4) in an antitumor model consisting of L1210 murine leukemia cells implanted ip into […] which has been used historically as an initial antitumor model for comparisons in this class.^11,12,14,15 A dose range of 300 to 9000 μg/kg for prodrug (+)-6 (scaled to its in vitro cytotoxic activity IC50) and 60 to 500 μg/kg for seco-CBI-indole2 (4) and a dosing schedule (administered three times ip on days 1, 5, and 9) for both compounds was employed.
B6D2F1 mice were injected intraperitoneal (i.p.) with syngeneic L1210 cells (1×10^6) on day 0. Ten mice were randomly assigned to control vehicle or treatment groups for compounds (+)-4 and (+)-6 at doses of 60, 100, 250, and 500 μg/kg/inj for (+)-4 or 300, 1000, 3000, and 9000 μg/kg/inj for (+)-6. Compounds (+)-4 and (+)-6 were formulated in 100% DMSO, and injected i.p. on study days 1, 5, and 9. Following injection of tumor cells, animals were monitored daily and weighed two times per week. Percent survival (T/C) for treated and control groups were determined by dividing the total survival days for each treatment group by the total survival days for the control group and multiplying ×100. All animal studies were carried out in the animal facilities of The University of Kansas Medical Center with strict adherence to the guidelines of the IACUC Animal Welfare Committee of KUMC (IACUC approval #2009-1837).

[5] = human, plasma; cited from earlier work
[6] = Chemical reactivity of N-Boc-prodrug 16 under acidic, basic and nucleophilic conditions; format: physicochemical
Procedure: In order to determine the ability of the free drug to be released under physiological conditions, the chemical reactivity of N-Boc-prodrug 16 was assessed under a variety of acidic, basic, and nucleophilic conditions.

[7] = calf serum; cited from earlier work
[8] = Mus musculus, L1210, read-out: In vitro IC50 L1210 natural, natural (S)-enantiomer, Table 4
[9] = Mus musculus, L1210, read-out: In vitro IC50 L1210 unnatural, unnatural (R)-enantiomer, Table 4
[10] = natural (S)-enantiomer, Table 4
[11] = pH 1 buffer (: 0.2 M Na2HPO4: H2O 4:1:20)
[12] = pH 2 buffer (1.0 M citric acid: 0.2 M Na2HPO4: H2O 4:1:20)
[13] = 60 μg/kg i.p. on days 1, 5, and 9
[14] = 100 μg/kg i.p. on days 1, 5, and 9
[15] = 250 μg/kg i.p. on days 1, 5, and 9
[16] = 500 μg/kg i.p. on days 1, 5, and 9
[17] = Mus musculus, L1210, read-out: IC50 L1210 natural, natural enantiomer, Table 2
[18] = Mus musculus, L1210, read-out: IC50 L1210 unnatural, unnatural enantiomer, Table 2

In the case of `CC(C)(C)OC(=O)N1CC2CC23C1=CC(=O)c1ccccc13` (stereo not drawn) [N-Boc-CBI], the IC50 [1] is given as 80 nM.
`COc1c(O)c2c(c3cc(C(=O)N4CCc5c4c(O)c(OC)c4[nH]c(C(=O)N6CC7CC78C6=CC(=O)c6[nH]cc(C)c68)cc54)[nH]c13)CCN2C(N)=O` (stereo not drawn) [Compound 2, CC-1065, reference compound] showed an IC50 ([2]; Mus musculus, L1210, natural (S)-enantiomer, Table 4, read-out: In vitro IC50 L1210 natural) of 0.02 nM, an IC50 ([2]; Mus musculus, L1210, natural enantiomer, Table 2, read-out: IC50 L1210 natural) of 0.02 nM and an IC50 ([2]; Mus musculus, L1210, unnatural (R)-enantiomer, Table 4, read-out: In vitro IC50 L1210 unnatural) of 0.02 nM. It also gave an IC50 ([2]; Mus musculus, L1210, unnatural enantiomer, Table 2, read-out: IC50 L1210 unnatural) of 0.02 nM.
For `N=C1Nc2cccc3c4c(cc(c23)O1)N(C(=O)c1cc2cc(NC(=O)c3cc5ccccc5[nH]3)ccc2[nH]1)C[C@H]4CCl` [Compound 24, (S)—N-(2-(10-(chloromethyl)-5-imino-5,8,9,10-tetrahydro-4H-pyrrolo[3′,2′,5,6]naphtho[1,8-de][1,3]oxazine-8-carbonyl)-1H-indol-5-yl)-1H-indole-2-carboxamide], the IC50 [2, 8] was 0.5 nM, the IC50 [2, 9] was 64 nM and the “In vitro IC50 L1210 natural” value [2, 10] was “in the nanomolar range”.
In the case of `CC(C)(C)OC(=O)N1CC2CC23C1=CC(=O)c1c(N)cccc13` (stereo not drawn) [Compound 21, N-tert-Butyloxycarbonyl-5-amino-1,2,9,9a-tetrahydrocyclopropa[c]benzo[e]indole-4-one], the half-life (Solvolysis of 21; [11]) is reported as 8.52 h, the half-life (Solvolysis of 21; [12]) is reported as 40.3 h and the “solvolysis rate constant k” value (Solvolysis of 21; [11]) is reported as 1.5e-05 s⁻¹. The “solvolysis rate constant k” value (Solvolysis of 21; [12]) was 5e-06 s⁻¹.
For `O=C(Nc1ccc2[nH]c(C(=O)N3C[C@@H](CCl)c4c3cc3c5c(cccc45)NC(=S)O3)cc2c1)c1cc2ccccc2[nH]1` [Compound 25, (S)—N-(2-(10-(chloromethyl)-5-thioxo-5,8,9,10-tetrahydro-4H-pyrrolo[3′,2′,5,6]naphtho[1,8-de][1,3]oxazine-8-carbonyl)-1H-indol-5-yl)-1H-indole-2-carboxamide], the IC50 [2, 8] was 0.29 nM, the IC50 [2, 9] was 62 nM and the “In vitro IC50 L1210 natural” value [2, 10] was “in the nanomolar range”.
For `Nc1cccc2c1C(=O)C=C1N(C(=O)c3cc4cc(NC(=O)c5cc6ccccc6[nH]5)ccc4[nH]3)CC3CC123` (stereo not drawn) [Compound 20, N-(2-(5-Amino-4-oxo-1,2,9,9a-tetrahydrocyclopropa[c]benzo[e]indole-2-carbonyl)-1H-indol-5-yl)-1H-indole-2-carboxamide], the “fold less active than 4 (active enantiomer)” value ([2]; L1210, inferred from the racemate IC50) was 3-4 fold and the IC50 ([2]; L1210, racemic parent drug, read-out: IC50) was 0.21 nM.
For `O=C(Nc1ccc2[nH]c(C(=O)N3C[C@@H](CCl)c4c3cc(O)c3ccccc43)cc2c1)c1cc2ccccc2[nH]1` [Compound 4, seco-CBI-indole2, reference compound], the optimal dose range [3] is given as 0.06 to 0.1 mg/kg, the IC50 ([2]; L1210, free drug, natural enantiomer, read-out: IC50) is given as 0.03 nM and the IC50 ([2]; natural (S)-enantiomer, Table 4, read-out: In vitro IC50 L1210 natural) is given as 0.03 nM. For the same molecule, the IC50 ([2]; natural enantiomer, Table 2, read-out: IC50 L1210 natural) was 0.03 nM, the IC50 ([2]; unnatural (R)-enantiomer, Table 4, read-out: In vitro IC50 L1210 unnatural) was 0.9 nM and the IC50 ([2]; unnatural enantiomer, Table 2, read-out: IC50 L1210 unnatural) was 0.9 nM. For the same molecule, the “MSP (Mean Survival Period)” value [4, 13] was >34.7 days, the “T/C (Treated/Control MSP x 100)” value [4, 13] was >197 and the “Surviving Mice” value [4, 13] was 1/10. For the same molecule, the “MSP (Mean Survival Period)” value [4, 14] was 6.4 days, the “T/C (Treated/Control MSP x 100)” value [4, 14] was 36 and the “Surviving Mice” value [4, 14] was 0/10. The “MSP (Mean Survival Period)” value [4, 15] was 3.7 days, the “T/C (Treated/Control MSP x 100)” value [4, 15] was 21 and the “Surviving Mice” value [4, 15] was 0/10. The “MSP (Mean Survival Period)” value [4, 16] was 3.0 days, the “T/C (Treated/Control MSP x 100)” value [4, 16] was 17 and the “Surviving Mice” value [4, 16] was 0/10. For the same molecule, the “toxicity leading to premature death of the animals” value ([4]; doses of 100-500 μg/kg i.p. on days 1, 5, and 9) was “toxic”.
In the case of `CCN(CC)c1ccc2cc(C(=O)Nc3ccc4[nH]c(C(=O)N5C[C@@H](CCl)c6c5cc(OC(=O)Nc5ccccc5)c5[nH]cc(C)c65)cc4c3)oc2c1` [carzelesin], the t1/2 [5] is listed as < 1 h.
Work on `COC(=O)c1cc2c([nH]1)C(=O)C=C1N(C(=O)c3cc4cc(OC)c(OC)c(OC)c4[nH]3)CC3CC123` (stereo not drawn) [Compound 1, Duocarmycin SA, reference compound] yielded an IC50 [2, 17] of 0.01 nM, an IC50 [2, 18] of 0.1 nM and an IC50 [2, 8] of 0.01 nM. For the same molecule, the IC50 [2, 9] was 0.1 nM.
In the case of `CC(C)(C)OC(=O)N1C[C@@H](CCl)c2c1cc1c3c(cccc23)NC(=O)O1` [Compound 16, tert-Butyl 10-(Chloromethyl)-5-oxo-9,10-dihydro-4H-pyrrolo[3′,2′:5,6]naphtho[1,8-de][1,3]oxazine-8(5H)-carboxylate], the “stability of the cyclic carbamate to hydrolysis under acidic conditions” value ([6]; 1:1 TFA:CH2Cl2, 4 N HCl in EtOAc, 48 h at 23° C., Boc group cleaved) is reported as “stable”, the “stability to BnNH2” value ([6]; BnNH2 (100 equiv) in MeOH, 24 h) is reported as “rapidly cleaved” and the “stability to BnNH2” value ([6]; BnNH2 in THF) is reported as “stable”. For the same molecule, the “stability in the presence of nucleophiles BnSH and BnOH” value ([6]; BnSH and BnOH (100 equiv) in MeOH and THF at 23° C. for 48 h) was “completely stable”, the “fold less active than N-Boc-CBI” value ([2]; L1210) was 50-100 fold and the IC50 [2, 17] was 4900 nM. For the same molecule, the IC50 [2, 18] was 5800 nM.
For `O=C(Nc1ccc2[nH]c(C(=O)N3C[C@@H](CCl)c4c3cc3c5c(cccc45)N=C(SCCN4C(=O)c5ccccc5C4=O)O3)cc2c1)c1cc2ccccc2[nH]1` [Compound 29, (S)—N-(2-(10-(chloromethyl)-5-((2-(1,3-dioxoisoindolin-2-yl)ethyl)thio)-9,10-dihydro-8H-pyrrolo[3′,2′:5,6]naphtho[1,8-de][1,3]oxazine-8-carbonyl)-1H-indol-5-yl)-1H-indole-2-carboxamide], the IC50 [2, 8] was < 100 nM and the IC50 ([2]; read-out: In vitro IC50 L1210 natural, natural (S)-enantiomer, Table 4) was 83.6 nM.
In the case of `COC(=O)c1c(C)[nH]c2c(OC(=O)N3CCN(C)CC3)cc3c(c12)[C@H](CBr)CN3C(=O)c1cc2cc(OC)c(OC)c(OC)c2[nH]1` [KW-2189], the t1/2 [7] is listed as 20 h.
